Here are results for six compounds from publication PMC11915372, “Identification of a Series Containing a Pentafluorophenyl Moiety That Targets Pks13 to Inhibit Growth of Mycobacterium tuberculosis” (ACS Infectious Diseases, 2025).

The structures appear in SMILES notation. ≈ marks a conversion by molar mass, not a printed value. Read-outs that look alike come from different tables or passages of the source.

In one data set the test system is M. tuberculosis (H37Rv). The data set can be described thus: microbe, parasite or virus in culture. The note with it: Mycobacterium tuberculosis, H37RV. It is filed as cell-based, Mycobacterium tuberculosis.
Data set [1] can be described thus: physchem. It is filed as physicochemical.
The format of data set [2] is in vitro ADME, mouse. The conditions noted are these: for Microsomal Cli: CD1, mouse; for Mouse micro Cl: microsomes.
Data set [3] is classed as in vitro ADME, mouse. The conditions noted are these: mouse; for Mouse Heps Cl: hepatocytes.
Data set [4] can be described thus: physchem. The note with it: pH 7.4.
Another data set concerns HepG2 cells. The data set can be described thus: HepG2 cytotoxicity. The note with it: Homo sapiens, HepG2, read-out: HepG2 inhibitory concentration (IC50).
Where [5] appears, read: read-out: Wk2_7H9/DPPC/ casitone/ Tyloxapol MIC.
The mark [6] stands for this setting: read-out: Wk2_ 7H9/DPPC/ cholesterol/BSA/ Tyloxapol MIC.
[7] abbreviates: read-out: Wk2_7H9/glucose/ BSA/Tyloxapol MIC.
Where [8] appears, read: read-out: Wk2_7H9/glucose/ casitone/ Tyloxapol MIC.
The mark [9] stands for this setting: pH 7.4, aqueous buffer, kinetic from dmso stock.

Excerpt for HepG2 cells: Assays to establish HepG2 cytotoxicity, in vitro microsomal/hepatocyte metabolic stability, aqueous kinetic solubility, and in vivo pharmacokinetic profiles were all performed as previously described.[15],[35]−[37]

Usually chromatographic logD stands for a lipophilicity value derived from retention on a column. High values mean a more lipophilic compound, low ones a more hydrophilic compound. Take `CCOC(=O)c1nc(C)oc1NCc1c(F)c(F)c(F)c(F)c1F` [Compound 29, CCOC(=O)c1nc(oc1NCc1c(c(c(c(c1F)F)F)F)F)C]: the MIC with M. tuberculosis (H37Rv) (read-out: H37Rv MIC A), in the data set on M. tuberculosis (H37Rv) (read-out: H37Rv MIC B), with M. tuberculosis (H37Rv) (setting [5]), in the data set on M. tuberculosis (H37Rv) (setting [6]), with M. tuberculosis (H37Rv) (setting [7]) and with M. tuberculosis (H37Rv) (setting [8]) was over 50 µM throughout. Besides, the solubility kinetic in “physchem [1]” (setting [9]) and in “physchem [1]” (read-out: Kin. Sol) was 23 µM (≈ 8.06 µg/mL) in each case. Further, the “Microsomal Cli” value in data set [2] amounted to 32 mL/min/g. Besides, the “Mouse micro Cl” value in data set [2] was 32 mLmin/g. The “Hepatocyte Cli” value in data set [3] is reported as over 50 mL/min/g. For the same compound, the “Mouse Heps Cl” value in data set [3] is over 50 mLmin/g. In “physchem [4]”, the chromatographic logD is 3.2. Besides, the IC50 in the data set on HepG2 cells was over 100 µM.

Turning to `CCOC(=O)c1nc(C)oc1NS(=O)(=O)c1c(F)c(F)c(F)c(F)c1F` [Compound 30, CCOC(=O)c1nc(oc1NS(=O)(=O)c1c(c(c(c(c1F)F)F)F)F)C], the MIC with M. tuberculosis (H37Rv) (read-out: H37Rv MIC A), in the data set with M. tuberculosis (H37Rv) (read-out: H37Rv MIC B), with M. tuberculosis (H37Rv) (setting [5]), in the data set on M. tuberculosis (H37Rv) (setting [6]), in the data set on M. tuberculosis (H37Rv) (setting [7]) and in the data set with M. tuberculosis (H37Rv) (setting [8]) was over 50 µM each time. Further, the solubility kinetic in the data set “physchem [1]” (setting [9]) and in the data set “physchem [1]” (read-out: Kin. Sol) was 171 µM (≈ 68.4 µg/mL) throughout. Moreover, the “Microsomal Cli” value in data set [2] came out at 0.9 mL/min/g. Further, in data set [2], the “Mouse micro Cl” value amounted to 0.94 mLmin/g. Further, the “Hepatocyte Cli” value in data set [3] is 0.8 mL/min/g. For the same compound, in data set [3], the “Mouse Heps Cl” value is listed as 0.78 mLmin/g. This compound also returned a chromatographic logD in the data set “physchem [4]” of 1.4. In the data set with HepG2 cells, the IC50 is over 100 µM.

On to `CCOC(=O)c1nc(C(C)C)oc1NC(=O)c1c(F)c(F)c(F)c(F)c1F` [Compound 31, CCOC(=O)c1nc(oc1NC(=O)c1c(c(c(c(c1F)F)F)F)F)C(C)C], for which the MIC in the data set with M. tuberculosis (H37Rv) (read-out: H37Rv MIC A) amounted to 0.1 µM (≈ 0.0392 µg/mL); with M. tuberculosis (H37Rv) (read-out: H37Rv MIC B) it was 0.6 µM (≈ 0.235 µg/mL); in the data set on M. tuberculosis (H37Rv) (setting [5]), 0.1 µM (≈ 0.0392 µg/mL); in the data set on M. tuberculosis (H37Rv) (setting [6]), 0.6 µM (≈ 0.235 µg/mL); in the data set with M. tuberculosis (H37Rv) (setting [7]) it was 0.6 µM (≈ 0.235 µg/mL); in the data set on M. tuberculosis (H37Rv) (setting [8]) it was 0.15 µM (≈ 0.0588 µg/mL). For the same compound, the solubility kinetic in the data set “physchem [1]” (setting [9]) and in “physchem [1]” (read-out: Kin. Sol) was 195 µM (≈ 76.5 µg/mL) in each case. In addition, the “Microsomal Cli” value in data set [2] is 3.3 mL/min/g. Moreover, the “Mouse micro Cl” value in data set [2] is given as 3.3 mL/min/g. The “Hepatocyte Cli” value in data set [3] stood at 13 mL/min/g. For the same compound, the “Mouse Heps Cl” value in data set [3] was determined as 13 mL/min/g. Also, the chromatographic logD in the data set “physchem [4]” was 2.8. Moreover, the IC50 in the data set on HepG2 cells was over 100 µM.

Take `CCOC(=O)c1nc(N(C)C)oc1NC(=O)c1c(F)c(F)c(F)c(F)c1F` [Compound 32, CCOC(=O)c1nc(oc1NC(=O)c1c(c(c(c(c1F)F)F)F)F)N(C)C]: the MIC in the data set on M. tuberculosis (H37Rv) (read-out: H37Rv MIC A) amounted to 0.2 µM (≈ 0.0787 µg/mL); with M. tuberculosis (H37Rv) (read-out: H37Rv MIC B), 0.6 µM (≈ 0.236 µg/mL); in the data set on M. tuberculosis (H37Rv) (setting [5]) it was 0.2 µM (≈ 0.0787 µg/mL); in the data set on M. tuberculosis (H37Rv) (setting [6]) it was 0.6 µM (≈ 0.236 µg/mL); with M. tuberculosis (H37Rv) (setting [7]), 1.2 µM (≈ 0.472 µg/mL); in the data set on M. tuberculosis (H37Rv) (setting [8]), 0.3 µM (≈ 0.118 µg/mL). The solubility kinetic in “physchem [1]” (setting [9]) and in “physchem [1]” (read-out: Kin. Sol) was 221 µM (≈ 86.9 µg/mL) in each case. Besides, in data set [2], the “Microsomal Cli” value came to 1.4 mL/min/g. For the same compound, in data set [2], the “Mouse micro Cl” value was determined as 1.4 mL/min/g. The “Hepatocyte Cli” value in data set [3] was 22 mL/min/g. Besides, the “Mouse Heps Cl” value in data set [3] is 22 mL/min/g. In “physchem [4]”, this compound registered a chromatographic logD of 2.4. The IC50 in the data set on HepG2 cells was over 100 µM.

For the compound `CCOC(=O)c1nc(COC)oc1NC(=O)c1c(F)c(F)c(F)c(F)c1F` [Compound 33, CCOC(=O)c1nc(oc1NC(=O)c1c(c(c(c(c1F)F)F)F)F)COC], the MIC was 1.2 µM (≈ 0.473 µg/mL) in the data set with M. tuberculosis (H37Rv) (read-out: H37Rv MIC A); 2.3 µM (≈ 0.907 µg/mL) with M. tuberculosis (H37Rv) (read-out: H37Rv MIC B); 1.2 µM (≈ 0.473 µg/mL) in the data set with M. tuberculosis (H37Rv) (setting [5]); 2.3 µM (≈ 0.907 µg/mL) in the data set with M. tuberculosis (H37Rv) (setting [6]); 2.3 µM (≈ 0.907 µg/mL) in the data set with M. tuberculosis (H37Rv) (setting [7]); 1.2 µM (≈ 0.473 µg/mL) with M. tuberculosis (H37Rv) (setting [8]). Also, the solubility kinetic in “physchem [1]” (setting [9]) and in “physchem [1]” (read-out: Kin. Sol) was 227 µM (≈ 89.5 µg/mL) throughout. The “Microsomal Cli” value in data set [2] was under 0.5 mL/min/g. Moreover, the “Mouse micro Cl” value in data set [2] is under 0.5 mL/min/g. The “Hepatocyte Cli” value in data set [3] was 7.5 mL/min/g. Also, in data set [3], the “Mouse Heps Cl” value turned out to be 7.5 mL/min/g. In “physchem [4]”, this compound had a chromatographic logD of 1.6. Further, in the data set on HepG2 cells, the IC50 is over 100 µM.

As to `CCOC(=O)c1nc(-c2ccccc2)oc1NC(=O)c1c(F)c(F)c(F)c(F)c1F` [Compound 34, CCOC(=O)c1nc(oc1NC(=O)c1c(c(c(c(c1F)F)F)F)F)-c1ccccc1], the MIC worked out at 0.8 µM (≈ 0.341 µg/mL) in the data set on M. tuberculosis (H37Rv) (read-out: H37Rv MIC A); 4.7 µM (≈ 2 µg/mL) in the data set on M. tuberculosis (H37Rv) (read-out: H37Rv MIC B); 0.8 µM (≈ 0.341 µg/mL) with M. tuberculosis (H37Rv) (setting [5]); 4.7 µM (≈ 2 µg/mL) in the data set with M. tuberculosis (H37Rv) (setting [6]); 4.7 µM (≈ 2 µg/mL) with M. tuberculosis (H37Rv) (setting [7]); 0.3 µM (≈ 0.128 µg/mL) in the data set on M. tuberculosis (H37Rv) (setting [8]). The solubility kinetic in the data set “physchem [1]” (setting [9]) and in the data set “physchem [1]” (read-out: Kin. Sol) was 21 µM (≈ 8.95 µg/mL) in each case. Also, the “Microsomal Cli” value in data set [2] was 6.9 mL/min/g. The “Mouse micro Cl” value in data set [2] is reported as 6.9 mL/min/g. Further, the “Hepatocyte Cli” value in data set [3] is listed as 10 mL/min/g. Also, the “Mouse Heps Cl” value in data set [3] is recorded as 10 mL/min/g. Besides, the chromatographic logD in “physchem [4]” worked out at 3. The IC50 in the data set on HepG2 cells stood at 93 µM.
